Measurements reported in ChEMBL document CHEMBL4651402, “Screening of ~5500 FDA-approved drugs and clinical candidates for anti-SARS-CoV-2 activity” (2021).

Tested on: SARS-CoV-2
Assay: microbe, parasite or virus in culture
Settings: Severe acute respiratory syndrome coronavirus 2, Vero C1008, 48 h

Row | Compound | IC50 | IC50 (read-out: pIC50 (converted))
1 | CN1C(C)(C)CCCC1(C)C [PEMPIDINE] | > 20 µM | > 20 µM
2 | C=C1c2c(Cl)ccc(O)c2C(=O)C2=C(O)[C@]3(O)C(=O)C(C(N)=O)=C(O)[C@@H](N(C)C)[C@@H]3[C@@H](O)[C@H]12 [MECLOCYCLINE] | > 20 µM | > 20 µM
3 | CCC(=O)C(CCN1CCCCC1)(c1ccccc1)c1ccccc1 [NORPIPANONE] | > 20 µM | > 20 µM
4 | CCCCc1nc(Cl)c(CO)n1Cc1ccc(-c2ccccc2-c2nnn[nH]2)cc1 [LOSARTAN] | > 20 µM | > 20 µM
5 | C[C@H]1C[C@H]2[C@@H]3CCC4=CC(=O)C=C[C@]4(C)[C@@]3(Cl)[C@@H](O)C[C@]2(C)[C@@]1(O)C(=O)CO [BECLOMETHASONE] | > 20 µM | > 20 µM
6 | CCN(CC)CCOC(=O)C1(c2ccc([N+](=O)[O-])cc2)CCCC1 | > 20 µM | > 20 µM
7 | C1CCN2CC3CC(CN4CCCCC34)C2C1 (stereo not given) | > 20 µM | > 20 µM
8 | CCCCC1C(=O)N(c2ccccc2)N(c2ccc(O)cc2)C1=O (stereo not given) [OXYPHENBUTAZONE ANHYDROUS] | > 20 µM | > 20 µM
9 | N#CN=C(NCCCCCCOc1ccc(Cl)cc1)Nc1ccncc1 [CHS-828] | > 20 µM | > 20 µM
10 | C[C@@H]1CCN(C(=O)CC#N)C[C@@H]1N(C)c1ncnc2[nH]ccc12 [TOFACITINIB] | > 20 µM | > 20 µM
11 | Cc1cnc(NC(=O)C2=C(O)c3ccccc3S(=O)(=O)N2C)s1 [MELOXICAM] | > 20 µM | > 20 µM
12 | CC1(C)Oc2ccc(C#N)cc2[C@@H](N2CCCC2=O)[C@@H]1O [LEVCROMAKALIM] | > 20 µM | > 20 µM
13 | C[C@@H]1O[C@@H](O[C@H]2C[C@@H](O)[C@]3(CO)[C@H]4[C@H](O)C[C@]5(C)[C@@H](C6=CC(=O)OC6)CC[C@]5(O)[C@@H]4CC[C@]3(O)C2)[C@H](O)[C@H](O)[C@H]1O [OUABAIN] | > 20 µM | > 20 µM
14 | CS(=O)(=O)CCCn1c(Cn2c(=O)n(CC(F)(F)F)c3ccncc32)cc2cc(Cl)ccc21 [RILEMATOVIR] | > 20 µM | > 20 µM
15 | CCCOC(=O)c1ccc(O)cc1 [PROPYLPARABEN] | > 20 µM | > 20 µM
16 | C[C@H]1O[C@H](OC[C@@H]2O[C@H](Oc3c(-c4ccc(O)c(O)c4)oc4cc(O)cc(O)c4c3=O)[C@@H](O)[C@H](O)[C@H]2O)[C@@H](O)[C@@H](O)[C@@H]1O | > 20 µM | > 20 µM
17 | OC(c1ccccc1)(c1ccccc1)[C@@H]1C[C@H]1c1ccncc1 | > 20 µM | > 20 µM
18 | CC(=O)OCC(=O)C12N=C(C)OC1CC1C3CCC4=CC(=O)C=CC4(C)C3(F)C(O)CC12C (stereo not given) | > 20 µM | > 20 µM
19 | CC[C@@H]1[C@H](F)C(=O)N[C@@H]1COc1nccc2cc(C(N)=O)c(OC)cc12 [ZIMLOVISERTIB] | > 20 µM | > 20 µM
20 | NC(=O)OCC(O)COc1ccc(Cl)cc1 (stereo not given) [CHLORPHENESIN CARBAMATE] | > 20 µM | > 20 µM

Row | Compound | IC50 | IC50 (read-out: pIC50 (converted))
21 | O=[N+]([O-])OC1COC2C(O[N+](=O)[O-])COC12 (stereo not given) | > 20 µM | > 20 µM
22 | CN(C)C[C@H]1CCCC[C@]1(O)c1cccc(O)c1 [O-DESMETHYL TRAMADOL] | > 100 µM | > 100 µM
23 | CC(=O)/C=C(\C)NCCN/C(C)=C/C(C)=O | > 20 µM | > 20 µM
24 | CC(CN1CCN(CCOCCO)CC1)CN1c2ccccc2Sc2ccccc21 (stereo not given) [DIXYRAZINE] | > 20 µM | > 20 µM
25 | CCN1C[C@]2(OC(=O)c3ccccc3NC(C)=O)CC[C@H](OC)[C@@]34[C@@H]2C[C@@H]([C@@H]13)[C@@]1(O)C[C@H](OC)[C@H]2C[C@@H]4[C@]1(O)[C@H]2OC | > 20 µM | > 20 µM
26 | C=CCc1cc(OC)c2c(c1OC)OCO2 [APIOL] | > 20 µM | > 20 µM
27 | Cl/C(=C\n1cncn1)c1ccc(Cl)cc1Cl [LORECLEZOLE] | > 20 µM | > 20 µM
28 | OC[C@H]1O[C@H](O[C@H]2O[C@H](CO)[C@@H](O)[C@H](O)[C@H]2O)[C@H](O)[C@@H](O)[C@@H]1O [TREHALOSE] | > 20 µM | > 20 µM
29 | C#CCN/C(=N\C#N)NCCSCc1nc[nH]c1C [ETINTIDINE] | > 20 µM | > 20 µM
30 | Cn1cc(-c2cnn3c(N)c(Br)c([C@@H]4CCCNC4)nc23)cn1 [SCH-900776] | > 20 µM | > 20 µM
31 | C/C(=C\C(=O)OCCCCCCCCC(=O)O)C[C@@H]1OC[C@H](C[C@@H]2O[C@H]2[C@H](C)[C@H](C)O)[C@@H](O)[C@@H]1O | > 20 µM | > 20 µM
32 | CNCCc1ccc(O)c(O)c1 [DEOXIEPINEPHRINE] | > 20 µM | > 20 µM
33 | CC1CC(OC(=O)C(O)c2ccccc2)CC(C)(C)C1 (stereo not given) [CYCLANDELATE] | > 20 µM | > 20 µM
34 | O=C(CCCCC(=O)Nc1c(I)cc(I)c(C(=O)O)c1I)Nc1c(I)cc(I)c(C(=O)O)c1I [IODIPAMIDE] | > 20 µM | > 20 µM
35 | CCN(CC)CCOc1ccc2c(c1)C(=O)c1cc(OCCN(CC)CC)ccc1-2 [TILORONE] | > 20 µM | > 20 µM
36 | C=CC(N)CCC(=O)O (stereo not given) [VIGABATRIN] | > 20 µM | > 20 µM
37 | CC1N(CC(=O)c2ccccc2)CCCC1(C)c1cccc(O)c1 (stereo not given) [MYFADOL] | > 20 µM | > 20 µM
38 | CC(C)S(=O)(=O)n1c(N)nc2ccc(C(=NO)c3ccccc3)cc21 [VIROXIME] | > 20 µM | > 20 µM
39 | CN1C(=O)CC(c2ccccc2)C1=O (stereo not given) [PHENSUXIMIDE] | > 20 µM | > 20 µM
40 | O=C(c1cc(Cc2n[nH]c(=O)c3ccccc23)ccc1F)N1CCN(C(=O)C2CC2)CC1 [OLAPARIB] | > 20 µM | > 20 µM

Row | Compound | IC50 | IC50 (read-out: pIC50 (converted))
41 | CCOc1ccc(-c2ccc(Cn3c(CC(C)(C)C(=O)O)c(SC(C)(C)C)c4cc(OCc5ccc(C)cn5)ccc43)cc2)cn1 [FIBOFLAPON] | > 20 µM | > 20 µM
42 | NCC(CC(=O)O)c1ccc(Cl)cc1 (stereo not given) [BACLOFEN] | > 20 µM | > 20 µM
43 | c1cc2c(c(N3CCNCC3)c1)OCCO2 [ELTOPRAZINE] | > 20 µM | > 20 µM
44 | O=C(O)CCCc1ccccc1 [PHENYLBUTANOIC ACID] | > 20 µM | > 20 µM
45 | CN(C)c1cc(NC(=O)CNC(C)(C)C)c(O)c2c1C[C@H]1C[C@H]3[C@H](N(C)C)C(O)=C(C(N)=O)C(=O)[C@@]3(O)C(O)=C1C2=O [TIGECYCLINE] | > 20 µM | > 20 µM
46 | O=C(Nc1ccccc1Br)N[C@H]1CCN(c2ccc(C(F)(F)F)cn2)C1 | > 20 µM | > 20 µM
47 | CN1CC(=O)N2[C@@H](c3ccc4c(c3)OCO4)c3[nH]c4ccccc4c3C[C@@H]2C1=O | > 20 µM | > 20 µM
48 | CC(C)(O)[C@@H]1CC[C@](C)(C2[C@@H](O)C[C@@]3(C)[C@H]4C[C@H](O[C@H]5OC(CO)[C@H](O)C(O)C5O)[C@H]5C(C)(C)C(O[C@@H]6OC[C@@H](O)C(O)C6O)CC[C@@]56C[C@@]46CC[C@]23C)O1 (stereo not given in full) | > 20 µM | > 20 µM
49 | CCC(Br)(CC)C(=O)NC(N)=O [CARBROMAL] | > 20 µM | > 20 µM
50 | CN(C)CCOc1ccc(/C(=C(\CCCl)c2ccccc2)c2ccccc2)cc1 | > 20 µM | > 20 µM
51 | N[C@@]1(C(=O)O)CC[C@H]2[C@H](C(=O)O)[C@H]21 | > 20 µM | > 20 µM
52 | CCOC(C(=O)OCCN(C)C)(c1ccccc1)c1ccccc1 [DIMENOXADOL] | > 20 µM | > 20 µM
53 | CC(=O)Oc1cc(C)c(OC(C)=O)c2ccccc12 [ACETOMENAPHTHONE] | > 20 µM | > 20 µM
54 | O=C(O)C(=O)O [OXALIC ACID] | > 20 µM | > 20 µM
55 | COc1ccc2c3c1O[C@H]1[C@@H](O)C=C[C@H]4[C@@H](C2)[N@+](C)([O-])CC[C@@]341 | > 20 µM | > 20 µM
56 | CCN1C(=S)N(c2ccc(N3CCN(c4ccc(O)cc4)CC3)cc2)C(=O)C1(C)C | > 20 µM | > 20 µM
57 | N=C(N)NC(=O)c1nc(Cl)c(N)nc1N [AMILORIDE] | > 50.1 µM | > 50.1 µM
58 | COc1cc(O)c(C(=O)c2ccccc2)cc1S(=O)(=O)O [SULISOBENZONE] | > 20 µM | > 20 µM
59 | Cc1cccc(Cc2c[nH]cn2)c1C [DETOMIDINE] | > 20 µM | > 20 µM
60 | Cc1c(CN(C)C(=O)/C=C/c2cnc3c(c2)CCC(=O)N3)oc2ccccc12 [AFN-1252] | > 20 µM | > 20 µM
